Among the data in patent US20230393140A1, “BINDING ASSAYS INVOLVING A PLURALITY OF SYNTHETIC COMPOUNDS, TARGETS, AND COUNTER TARGETS” (SRI International, priority 2020, published 2023) are Kd values, retold here.

Where two headings read alike, the source gives them in different places. Numbered stars: 1 amine (or outer) side, 2 acyl side, 3 side chain; on linkers, the order of the positions; unused ones are H or OH. Square brackets hold non-standard residues; d marks the D form. Peptide text beside a SMILES is read from it. * marks the point of attachment. 5FAM = O=C1OC2(c3ccc(O)cc3Oc3cc(O)ccc32)c2ccc(C(=O)*)cc21; NHCH2C6H4(4-CH2CONH2) = NC(=O)Cc1ccc(CN*)cc1; X1 = O=C(Cc1ccc(CN[*:1])cc1)[*:2]

This assay concerns the target T1, IL-6 (Homo sapiens, UniProt P05231).
T1 construct: purchased Creative Biomart IL6-12H
The assay can be described thus: MST binding affinity of resynthesized NNP hits to IL-6. On the procedure:
Hit binding affinity to various targets were determined using Microscale Thermophoresis (MST). MST experiments were performed on a Monolith NT.115pico (NanoTemper Technologies GmbH, Munich, Germany). Measurements were performed at room temperature, in triplicate with incubation periods of 15, 30 and 45 minutes. […] Targets were labeled using Nanotemper Monolith 2nd Generation Protein Labeling Kits. RED-MALEIMIDE (Maleimide-647-dye) labeling kit was used for K-Ras and RED-NHS (NHS-647-dye) labeling kit was used for IL-6, IL-6R, TNFα and ASGPR. The buffer for the ASGPR contained 20 mM HEPES pH 7.4, 150 mM NaCl, 10 mM MgCl2, 2 mM CaCl2, 0.05% Pluronic F-127, and 1 mM DTT; for IL-6 contained 20 mM HEPES pH 7.4, 150 mM KCl, 10 mM MgCl2, and 0.1% Pluronic F-127; for the soluble IL-6 receptor 20 mM HEPES pH 7.4, 150 mM NaCl, 10 mM MgCl2, and 0.05% Tween-20; for K-Ras 20 mM HEPES pH 7.4, 150 mM NaCl, 10 mM MgCl2, 0.05% Tween-20 and 1 mM DTT; for TNFα 10 mM HEPES pH 7.4, 150 mM NaCl, 10 mM MgCl2, 0.05% Polysorbate-20. Triplicate data was analyzed using MO.AffinityAnalysis software (NanoTemper Technologies GmbH).

Where [1] appears, read: read-out: KD (nM) [95% conf. int], NNP2 library hit, target IL-6, one-site binding model.
Setting [2] is: NNP2 library hit, target IL-6, one-site binding model.

The Kd is the equilibrium constant for the complex coming apart.

Take `CC(C)C[C@H](NC(=O)[C@@H](CCCNC(=N)N)NC(=O)[C@@H](Cc1c[nH]c2ccccc12)NC(=O)Cc1ccc(CNC(=O)[C@H](Cc2ccccc2)NC(=O)[C@@H](CO)NC(=O)[C@@H](CCCNC(=N)N)NC(=O)Cc2ccc(CNC(=O)[C@@H](NC(=O)[C@@H](CO)NC(=O)[C@@H](Cc3ccc(O)cc3)NC(=O)Cc3ccc(CNC(=O)[C@H](CC(C)C)NC(=O)[C@@H](CC(C)C)NC(=O)[C@@H](Cc4ccc(O)cc4)NC(=O)c4ccc5c(c4)C(=O)OC54c5ccc(O)cc5Oc5cc(O)ccc54)cc3)C(C)C)cc2)cc1)C(=O)NCc1ccc(CC(=O)N[C@H](Cc2c[nH]c3ccccc23)C(=O)N[C@H](CCCNC(=N)N)C(=O)N[C@H](C(=O)NCc2ccc(CC(=O)N[C@H](CCCNC(=N)N)C(=O)N[C@H](Cc3ccc(O)cc3)C(=O)N[C@@H](CC(C)C)C(=O)NCc3ccc(CC(=O)N[C@H](CCC(=O)O)C(=O)N[C@H](Cc4ccc(O)cc4)C(=O)N[C@H](C(=O)NCc4ccc(CC(=O)N[C@H](CCCCN)C(=O)N[C@H](Cc5ccccc5)C(=O)N[C@@H](Cc5ccccc5)C(=O)NCc5ccc(CC(=O)N[C@H](Cc6ccc(O)cc6)C(=O)N[C@H](CCCNC(=N)N)C(=O)N[C@@H](Cc6ccccc6)C(=O)NCc6ccc(CC(N)=O)cc6)cc5)cc4)C(C)C)cc3)cc2)C(C)C)cc1` [IL6-65-1] (5FAM-[dY][dL]L[X1][dY][dS]V[X1][dR][dS]F[X1][dW][dR]L[X1][dW][dR]V[X1][dR][dY]L[X1][dE][dY]V[X1][dK][dF]F[X1][dY][dR]F-{NHCH2C6H4(4-CH2CONH2)}): under setting [1], the Kd worked out at 500 nM.

As for `CC(C)C[C@H](NC(=O)[C@@H](CC(N)=O)NC(=O)[C@@H](CCCCN)NC(=O)Cc1ccc(CNC(=O)[C@H](C)NC(=O)[C@H](NC(=O)[C@@H](Cc2ccccc2)NC(=O)Cc2ccc(CNC(=O)[C@H](Cc3ccccc3)NC(=O)[C@@H](CCCCN)NC(=O)[C@@H](C)NC(=O)Cc3ccc(CNC(=O)[C@H](C)NC(=O)[C@@H](CCCNC(=N)N)NC(=O)[C@@H](Cc4ccccc4)NC(=O)Cc4ccc(CNC(=O)[C@H](C)NC(=O)[C@@H](CCCCN)NC(=O)[C@H]5CCCN5C(=O)Cc5ccc(CNC(=O)[C@H](Cc6ccccc6)NC(=O)[C@@H](C)NC(=O)[C@@H](C)NC(=O)Cc6ccc(CNC(=O)[C@H](Cc7ccccc7)NC(=O)[C@@H](CC(C)C)NC(=O)[C@@H](Cc7c[nH]cn7)NC(=O)c7ccc8c(c7)C(=O)OC87c8ccc(O)cc8Oc8cc(O)ccc87)cc6)cc5)cc4)cc3)cc2)[C@H](C)O)cc1)C(=O)NCc1ccc(CC(=O)N[C@@H](C(=O)N[C@H](Cc2c[nH]cn2)C(=O)N[C@@H](CC(C)C)C(=O)NCc2ccc(CC(=O)N[C@H](Cc3ccccc3)C(=O)N[C@H](CCCCN)C(=O)NCC(=O)NCc3ccc(CC(N)=O)cc3)cc2)[C@H](C)O)cc1` [IL6-65-2, Fluorescein-(D)His-(D)Leu-(L)Phe-PAM-(D)Ala-(D)Ala-(L)Phe-PAM-(D)Pro-(D)Lys-(L)Ala-PAM-(D)Phe-(D)Arg-(L)Ala-PAM-(D)Ala-(D)Lys-(L)Phe-PAM-(D)Phe-(D)Thr-(L)Ala-PAM-(D)Lys-(D)Asn- (L)Leu-PAM-(D)Thr-(D)His-(L)Leu-PAM-(D)Phe-(D)Lys-Gly-PAM] (5FAM-[dH][dL]F[X1][dA][dA]F[X1][dP][dK]A[X1][dF][dR]A[X1][dA][dK]F[X1][dF][dT]A[X1][dK][dN]L[X1][dT][dH]L[X1][dF][dK]G-{NHCH2C6H4(4-CH2CONH2)}), the Kd under setting [2] amounted to 400 nM.

For the compound `CC(C)C[C@H](NC(=O)[C@@H](CCCNC(=N)N)NC(=O)[C@@H](Cc1c[nH]c2ccccc12)NC(=O)Cc1ccc(CNC(=O)[C@H](Cc2ccccc2)NC(=O)[C@@H](CO)NC(=O)[C@@H](CCCNC(=N)N)NC(=O)Cc2ccc(CNC(=O)[C@H](Cc3ccccc3)NC(=O)[C@@H](CO)NC(=O)[C@@H](CCC(=O)O)NC(=O)Cc3ccc(CNC(=O)[C@H](Cc4ccccc4)NC(=O)[C@@H](Cc4c[nH]c5ccccc45)NC(=O)[C@@H](CCCNC(=N)N)NC(=O)c4ccc5c(c4)C(=O)OC54c5ccc(O)cc5Oc5cc(O)ccc54)cc3)cc2)cc1)C(=O)NCc1ccc(CC(=O)NCC(=O)N[C@H](C)C(=O)N[C@H](C(=O)NCc2ccc(CC(=O)N[C@H](CC(N)=O)C(=O)N[C@H](CCCNC(=N)N)C(=O)N[C@@H](Cc3ccccc3)C(=O)NCc3ccc(CC(=O)N[C@H](C)C(=O)N[C@H](CO)C(=O)N[C@@H](Cc4ccccc4)C(=O)NCc4ccc(CC(=O)N5CCC[C@@H]5C(=O)N[C@H](CCCNC(=N)N)C(=O)N[C@@H](C)C(=O)NCc5ccc(CC(=O)N[C@H](Cc6ccccc6)C(=O)N[C@H](CCCCN)C(=O)NCC(=O)NCc6ccc(CC(N)=O)cc6)cc5)cc4)cc3)cc2)C(C)C)cc1` [IL6-65-3, Fluorescein-(D)Arg-(D)Trp-(L)Phe-PAM-(D)Glu-(D)Ser-(L)Phe-PAM-(D)Arg-(D)Ser-(L)Phe-PAM-(D)Trp-(D)Arg-(L)Leu-PAM-Gly-(D)Ala-(L)Val-PAM-(D)Asn-(D)Arg-(L)Phe-PAM-(D)Ala-(D)Ser-(L)Phe- PAM-(D)Pro-(D)Arg-(L)Ala-PAM-(D)Phe-(D)Lys-Gly-PAM] (5FAM-[dR][dW]F[X1][dE][dS]F[X1][dR][dS]F[X1][dW][dR]L[X1]G[dA]V[X1][dN][dR]F[X1][dA][dS]F[X1][dP][dR]A[X1][dF][dK]G-{NHCH2C6H4(4-CH2CONH2)}), the Kd under setting [2] stood at 90 nM.

Take `CC(C)C[C@H](NC(=O)[C@@H](CCCCN)NC(=O)[C@@H](Cc1c[nH]cn1)NC(=O)Cc1ccc(CNC(=O)[C@H](CC(C)C)NC(=O)[C@@H](CCCNC(=N)N)NC(=O)[C@@H](Cc2c[nH]c3ccccc23)NC(=O)Cc2ccc(CNC(=O)[C@H](Cc3ccccc3)NC(=O)[C@@H](Cc3ccc(O)cc3)NC(=O)[C@@H](Cc3c[nH]cn3)NC(=O)Cc3ccc(CNC(=O)[C@H](CC(C)C)NC(=O)[C@@H](CCCNC(=N)N)NC(=O)[C@@H](CC(C)C)NC(=O)Cc4ccc(CNC(=O)[C@H](Cc5ccccc5)NC(=O)[C@@H](Cc5c[nH]c6ccccc56)NC(=O)[C@@H](CCCNC(=N)N)NC(=O)c5ccc6c(c5)C(=O)OC65c6ccc(O)cc6Oc6cc(O)ccc65)cc4)cc3)cc2)cc1)C(=O)NCc1ccc(CC(=O)N[C@H](C)C(=O)N[C@H](Cc2ccc(O)cc2)C(=O)NCC(=O)NCc2ccc(CC(=O)N[C@H](Cc3c[nH]cn3)C(=O)N[C@H](CCC(=O)O)C(=O)N[C@@H](CC(C)C)C(=O)NCc3ccc(CC(=O)N4CCC[C@@H]4C(=O)N[C@H](CCCNC(=N)N)C(=O)N[C@@H](C)C(=O)NCc4ccc(CC(=O)N[C@H](Cc5ccccc5)C(=O)N[C@H](CCCCN)C(=O)NCC(=O)NCc5ccc(CC(N)=O)cc5)cc4)cc3)cc2)cc1` [IL6-65-4, Fluorescein-(D)Arg-(D)Trp-(L)Phe-PAM-(D)Leu-(D)Arg-(L)Leu-PAM-(D)His-(D)Tyr-(L)Phe-PAM-(D)Trp-(D)Arg-(L)Leu-PAM-(D)His-(D)Lys-(L)Leu-PAM-(D)Ala-(D)Tyr-Gly-PAM-(D)His-(D)Glu-(L)Leu- PAM-(D)Pro-(D)Arg-(L)Ala-PAM-(D)Phe-(D)Lys-Gly-PAM] (5FAM-[dR][dW]F[X1][dL][dR]L[X1][dH][dY]F[X1][dW][dR]L[X1][dH][dK]L[X1][dA][dY]G[X1][dH][dE]L[X1][dP][dR]A[X1][dF][dK]G-{NHCH2C6H4(4-CH2CONH2)}): under setting [2], the affinity, expressed as Kd, was 37 nM.

For the compound `CC(C)C[C@H](NC(=O)[C@@H](CCCNC(=N)N)NC(=O)CNC(=O)Cc1ccc(CNC(=O)[C@H](Cc2ccccc2)NC(=O)[C@@H](Cc2ccccc2)NC(=O)[C@@H](CO)NC(=O)c2ccc3c(c2)C(=O)OC32c3ccc(O)cc3Oc3cc(O)ccc32)cc1)C(=O)NCc1ccc(CC(=O)N[C@H](CC(C)C)C(=O)N[C@H](CCCCN)C(=O)N[C@@H](CC(C)C)C(=O)NCc2ccc(CC(=O)N[C@H](Cc3c[nH]c4ccccc34)C(=O)N[C@H](CCCNC(=N)N)C(=O)N[C@@H](CC(C)C)C(=O)NCc3ccc(CC(=O)N[C@H](C)C(=O)N[C@H](CCCCN)C(=O)N[C@@H](Cc4ccccc4)C(=O)NCc4ccc(CC(=O)N[C@H](Cc5c[nH]cn5)C(=O)N[C@H](CCCCN)C(=O)N[C@@H](Cc5ccccc5)C(=O)NCc5ccc(CC(=O)N[C@H](C)C(=O)N[C@H](CCCNC(=N)N)C(=O)N[C@@H](CC(C)C)C(=O)NCc6ccc(CC(=O)N[C@@H](C(=O)N[C@H](Cc7c[nH]cn7)C(=O)N[C@@H](CC(C)C)C(=O)NCc7ccc(CC(=O)N[C@H](Cc8ccccc8)C(=O)N[C@H](CCCNC(=N)N)C(=O)NCC(=O)NCc8ccc(CC(N)=O)cc8)cc7)[C@H](C)O)cc6)cc5)cc4)cc3)cc2)cc1` [IL6-65-5] (5FAM-[dS][dF]F[X1]G[dR]L[X1][dL][dK]L[X1][dW][dR]L[X1][dA][dK]F[X1][dH][dK]F[X1][dA][dR]L[X1][dT][dH]L[X1][dF][dR]G-{NHCH2C6H4(4-CH2CONH2)}), the equilibrium dissociation constant (Kd) under setting [1] worked out at 33 nM.
